Data published in ChEMBL document CHEMBL1138864, “Synthesis of novel caspase inhibitors for characterization of the active caspase proteome in vitro and in vivo” (J Med Chem, 2006).
Calls of active or inactive are those of the source. No cut-off for these calls is given here.

How the values were obtained:
Jurkat [1] = assay: Inhibition of etoposide-induced apoptosis in human Jurkat T cells at 1 uM; assay type: functional, cell-based
Jurkat [2] = assay: Inhibition of etoposide-induced apoptosis in human Jurkat T cells at 10 uM; assay type: functional, cell-based

Compound: Cc1cccc(C)c1C(=O)OCC(=O)[C@H](CC(=O)O)NC(=O)[C@H](CCCCNc1ccc([N+](=O)[O-])cc1[N+](=O)[O-])NC(=O)[C@H](CCC(=O)O)NC(=O)OCc1ccccc1
- Activity (Jurkat [1]): Active
- Activity (Jurkat [2]): Active
